The test system of experiment [1] is antibodies in sera from SARS patients (sera 1a, 1b, 2, 6, 37, 62, London, SARS-yellow, SARS-green). The class given is binding, human. More on the design: Binding of serum 6 to linear peptides of protein X1 of SARS-CoV Urbani / Binding of serum 37 to linear peptides of protein X1 of SARS-CoV Urbani / Binding of serum 6 to looped/cyclic peptide (PEPSCAN-ELISA) / Binding of serum 37 to looped/cyclic peptide (PEPSCAN-ELISA) / Binding of serum 37 to looped/cyclic peptides of protein X1 of SARS-CoV Urbani / Binding of serum 6 to linear peptides of protein X2 / Binding of serum 37 to linear peptides of protein X2 / Binding of serum 37 to looped/cyclic peptides of protein X2 of SARS-CoV Urbani / Binding of serum 6 to linear peptides of protein M of SARS-CoV Urbani / Binding of serum 37 to linear peptides of protein M of SARS-CoV Urbani / Binding of serum 6 to looped/cyclic peptides of protein M of SARS-CoV Urbani / Binding of serum 37 to looped/cyclic peptides of protein M of SARS-CoV Urbani / Binding of serum 6 to linear peptides of protein X3 of SARS-CoV Urbani / Binding of serum 37 to linear peptides of protein X3 of SARS-CoV Urbani / Binding of serum 37 to looped/cyclic peptides of protein X3 of SARS-CoV Urbani / Binding of serum 6 to linear peptides of protein X4 of SARS-CoV Urbani / Binding of serum 37 to linear peptides of protein X4 of SARS-CoV Urbani / Binding of serum 37 to looped/cyclic peptides of protein X4 of SARS-CoV Urbani / Binding of serum 6 to linear peptides of protein X5 of SARS-CoV Urbani / Binding of serum 37 to linear peptides of protein X5 of SARS-CoV Urbani / Binding of serum 37 to looped/cyclic peptides of protein X5 of SARS-CoV Urbani / Binding of serum 6 to linear peptides of protein N of SARS-CoV Urbani / Binding of serum 37 to linear peptides of protein N of SARS-CoV Urbani / Binding of serum 6 to linear peptide (PEPSCAN-ELISA) / Binding of serum 1a to looped/cyclic peptides of protein N of SARS-CoV Urbani / Binding of serum 1b to looped/cyclic peptides of protein N of SARS-CoV Urbani / Binding of serum 2 to looped/cyclic peptides of protein N of SARS-CoV Urbani / Binding of serum 6 to looped/cyclic peptides of protein N of SARS-CoV Urbani / Binding of serum 37 to looped/cyclic peptides of protein N of SARS-CoV Urbani / Binding of serum 62 to looped/cyclic peptides of protein N of SARS-CoV Urbani / Binding of serum London to looped/cyclic peptides of protein N of SARS-CoV Urbani / Binding of serum SARS-green to looped/cyclic peptides of protein N of SARS-CoV Urbani: unit not given here.

In experiment [2] the test system is control sera (pooled serum of ten healthy LUMC hospital workers; commercial negative donor pooled serum from the Dutch bloodbank). In kind it is binding, human. More on the design: Binding of Control serum LUMC to linear peptides / Binding of Control serum Blood-bank to linear peptides / Binding of Control serum LUMC to looped peptides / Binding of Control Serum Blood-Bank to Looped peptides / Binding of Control serum LUMC to linear peptides of the protein M of SARS-CoV Urbani / Binding of Control serum Blood-bank to linear peptides of the protein M of SARS-CoV Urbani / Binding of Control serum LUMC to looped peptides of the protein M of SARS-CoV Urbani / Binding of Control Serum Blood-Bank to Looped peptides of the protein M of SARS-CoV Urbani: unit not given here.

Experiment [3] has as its system rabbit serum obtained by immunizing a rabbit with the SARS-CoV strain Frankfurt 1. The class given is binding. Also on record: Binding of a rabbit serum to linear peptides / Binding of a rabbit serum to looped peptides / Rabbit serum linear peptides / Rabbit serum looped peptides / Binding of a rabbit serum to linear peptides of protein N of SARS-CoV Urbani (Rabbit serum linear peptides) / Binding of a rabbit serum to looped/cyclic peptides of protein N of SARS-CoV Urbani (Rabbit serum looped peptides): unit not given here.

As for AFACADGTRHTYQLR, in experiment [1], the “Binding of serum 1a to linear peptides of protein X4 of SARS-CoV Urbani” value was 0.6, the “Binding of serum 1a to looped/cyclic peptides of protein X4 of SARS-CoV Urbani” value turned out to be 0.6, the “Binding of serum 1b to linear peptides of protein X4 of SARS-CoV Urbani” value worked out at 0.4 and the “Binding of serum 1b to looped/cyclic peptides of protein X4 of SARS-CoV Urbani” value is 0.4. Besides, in experiment [1], the “Binding of serum 2 to linear peptides of protein X4 of SARS-CoV Urbani” value is recorded as 0.4, the “Binding of serum 2 to looped/cyclic peptides of protein X4 of SARS-CoV Urbani” value worked out at 0.8, the “Binding of serum 6 to linear peptides of protein X4 of SARS-CoV Urbani” value is on record as 0.5 and the “Binding of serum 6 to looped/cyclic peptides of protein X4 of SARS-CoV Urbani” value was determined as 0.9. Further, in experiment [1], the “Binding of serum 37 to linear peptides of protein X4 of SARS-CoV Urbani” value amounted to 0.6, the “Binding of serum 37 to looped/cyclic peptides of protein X4 of SARS-CoV Urbani” value stood at 0.6, the “Binding of serum 62 to linear peptides of protein X4 of SARS-CoV Urbani” value was 0.7 and the “Binding of serum 62 to looped/cyclic peptides of protein X4 of SARS-CoV Urbani” value came to 0.5. Moreover, in experiment [1], the “Binding of serum London to linear peptides of protein X4 of SARS-CoV Urbani” value is reported as 0.6, the “Binding of serum London to looped/cyclic peptides of protein X4 of SARS-CoV Urbani” value is reported as 0.4, the “Binding of serum SARS-green to linear peptides of protein X4 of SARS-CoV Urbani” value stood at 0.4 and the “Binding of serum SARS-green to looped/cyclic peptides of protein X4 of SARS-CoV Urbani” value turned out to be 0.5. In experiment [1], the “Binding of serum SARS-yellow to linear peptides of protein X4 of SARS-CoV Urbani” value stood at 0.2 and the “Binding of serum SARS-yellow to looped/cyclic peptides of protein X4 of SARS-CoV Urbani” value was 0.4. Moreover, in experiment [2], the “Binding of Control Serum Blood-Bank to Looped peptides” value was 0.7, the “Binding of Control serum Blood-bank to linear peptides” value is recorded as 0.6, the “Binding of Control serum LUMC to linear peptides” value was determined as 0.5 and the “Binding of Control serum LUMC to looped peptides” value amounted to 0.8. For the same sequence, in experiment [3], the “Rabbit serum linear peptides” value was 0.5 and the “Rabbit serum looped peptides” value is reported as 0.1.
Regarding AGGALIARCWYLHEG, in experiment [1], the “Binding of serum 1a to linear peptides of protein X5 of SARS-CoV Urbani” value turned out to be 0.8, the “Binding of serum 1a to looped/cyclic peptides of protein X5 of SARS-CoV Urbani” value turned out to be 0.7, the “Binding of serum 1b to linear peptides of protein X5 of SARS-CoV Urbani” value is 0.7 and the “Binding of serum 1b to looped/cyclic peptides of protein X5 of SARS-CoV Urbani” value is listed as 0.4. Further, in experiment [1], the “Binding of serum 2 to linear peptides of protein X5 of SARS-CoV Urbani” value was found to be 0.5, the “Binding of serum 2 to looped/cyclic peptides of protein X5 of SARS-CoV Urbani” value worked out at 0.5, the “Binding of serum 6 to linear peptides of protein X5 of SARS-CoV Urbani” value was 0.7 and the “Binding of serum 6 to looped/cyclic peptides of protein X5 of SARS-CoV Urbani” value is 0.5. Besides, in experiment [1], the “Binding of serum 37 to linear peptides of protein X5 of SARS-CoV Urbani” value was 0.8, the “Binding of serum 37 to looped/cyclic peptides of protein X5 of SARS-CoV Urbani” value came to 0.6, the “Binding of serum 62 to linear peptides of protein X5 of SARS-CoV Urbani” value came out at 0.9 and the “Binding of serum 62 to looped/cyclic peptides of protein X5 of SARS-CoV Urbani” value stood at 0.5. Besides, in experiment [1], the “Binding of serum London to linear peptides of protein X5 of SARS-CoV Urbani” value came to 0.7, the “Binding of serum London to looped/cyclic peptides of protein X5 of SARS-CoV Urbani” value is listed as 0.2, the “Binding of serum SARS-green to linear peptides of protein X5 of SARS-CoV Urbani” value is reported as 0.7 and the “Binding of serum SARS-green to looped/cyclic peptides of protein X5 of SARS-CoV Urbani” value was found to be 0.4. In experiment [1], the “Binding of serum SARS-yellow to linear peptides of protein X5 of SARS-CoV Urbani” value was determined as 0.5 and the “Binding of serum SARS-yellow to looped/cyclic peptides of protein X5 of SARS-CoV Urbani” value is recorded as 0.4. Besides, in experiment [2], the “Binding of Control Serum Blood-Bank to Looped peptides” value is recorded as 0.7, the “Binding of Control serum Blood-bank to linear peptides” value is 0.6, the “Binding of Control serum LUMC to linear peptides” value turned out to be 0.5 and the “Binding of Control serum LUMC to looped peptides” value was 0.4. In experiment [3], the “Rabbit serum linear peptides” value was found to be 0.5 and the “Rabbit serum looped peptides” value is on record as 0.4.
On to AISPKFTTSLSLHKL, for which, in experiment [1], the “Binding of serum 1a to linear peptides of protein X2” value amounted to 0.6, the “Binding of serum 1a to looped/cyclic peptides of protein X2 of SARS-CoV Urbani” value is recorded as 0.6, the “Binding of serum 1b to linear peptides of protein X2” value is reported as 0.5 and the “Binding of serum 1b to looped/cyclic peptides of protein X2 of SARS-CoV Urbani” value was 0.6. Moreover, in experiment [1], the “Binding of serum 2 to linear peptides of protein X2” value stood at 0.5, the “Binding of serum 2 to looped/cyclic peptides of protein X2 of SARS-CoV Urbani” value amounted to 0.4, the “Binding of serum 6 to linear peptides of protein X2” value was 0.6 and the “Binding of serum 6 to looped/cyclic peptides of protein X2 of SARS-CoV Urbani” value came to 0.8. Also, in experiment [1], the “Binding of serum 37 to linear peptides of protein X2” value is recorded as 0.6, the “Binding of serum 37 to looped/cyclic peptides of protein X2 of SARS-CoV Urbani” value amounted to 0.5, the “Binding of serum 62 to linear peptides of protein X2” value was found to be 0.6 and the “Binding of serum 62 to looped/cyclic peptides of protein X2 of SARS-CoV Urbani” value is listed as 0.7. In experiment [1], the “Binding of serum London to linear peptides of protein X2” value is reported as 0.5, the “Binding of serum London to looped/cyclic peptides of protein X2 of SARS-CoV Urbani” value is on record as 1.1, the “Binding of serum SARS-green to linear peptides of protein X2” value is listed as 0.4 and the “Binding of serum SARS-green to looped/cyclic peptides of protein X2 of SARS-CoV Urbani” value was 0.3. For the same sequence, in experiment [1], the “Binding of serum SARS-yellow to linear peptides of protein X2” value was determined as 0.5 and the “Binding of serum SARS-yellow to looped/cyclic peptides of protein X2 of SARS-CoV Urbani” value was determined as 0.4. Also, in experiment [2], the “Binding of Control Serum Blood-Bank to Looped peptides” value is given as 0.8, the “Binding of Control serum Blood-bank to linear peptides” value was found to be 0.8, the “Binding of Control serum LUMC to linear peptides” value was found to be 0.6 and the “Binding of Control serum LUMC to looped peptides” value is recorded as 0.6. In experiment [3], the “Binding of a rabbit serum to linear peptides” value turned out to be 0.2 and the “Binding of a rabbit serum to looped peptides” value is 0.4.
Turning to ALIARCWYLHEGHQT, in experiment [1], the “Binding of serum 1a to linear peptides of protein X5 of SARS-CoV Urbani” value stood at 0.6, the “Binding of serum 1a to looped/cyclic peptides of protein X5 of SARS-CoV Urbani” value is given as 0.6, the “Binding of serum 1b to linear peptides of protein X5 of SARS-CoV Urbani” value stood at 0.5 and the “Binding of serum 1b to looped/cyclic peptides of protein X5 of SARS-CoV Urbani” value is listed as 0.1. Also, in experiment [1], the “Binding of serum 2 to linear peptides of protein X5 of SARS-CoV Urbani” value came out at 0.6, the “Binding of serum 2 to looped/cyclic peptides of protein X5 of SARS-CoV Urbani” value is 0.5, the “Binding of serum 6 to linear peptides of protein X5 of SARS-CoV Urbani” value was determined as 0.5 and the “Binding of serum 6 to looped/cyclic peptides of protein X5 of SARS-CoV Urbani” value worked out at 0.3. For the same sequence, in experiment [1], the “Binding of serum 37 to linear peptides of protein X5 of SARS-CoV Urbani” value is 0.7, the “Binding of serum 37 to looped/cyclic peptides of protein X5 of SARS-CoV Urbani” value stood at 0.4, the “Binding of serum 62 to linear peptides of protein X5 of SARS-CoV Urbani” value is on record as 0.7 and the “Binding of serum 62 to looped/cyclic peptides of protein X5 of SARS-CoV Urbani” value was found to be 0.4. In experiment [1], the “Binding of serum London to linear peptides of protein X5 of SARS-CoV Urbani” value is reported as 0.6, the “Binding of serum London to looped/cyclic peptides of protein X5 of SARS-CoV Urbani” value came to 0.1, the “Binding of serum SARS-green to linear peptides of protein X5 of SARS-CoV Urbani” value was found to be 0.7 and the “Binding of serum SARS-green to looped/cyclic peptides of protein X5 of SARS-CoV Urbani” value was found to be 0.0. Further, in experiment [1], the “Binding of serum SARS-yellow to linear peptides of protein X5 of SARS-CoV Urbani” value is recorded as 0.2 and the “Binding of serum SARS-yellow to looped/cyclic peptides of protein X5 of SARS-CoV Urbani” value is listed as 0.0. Further, in experiment [2], the “Binding of Control Serum Blood-Bank to Looped peptides” value is 0.4, the “Binding of Control serum Blood-bank to linear peptides” value was determined as 0.6, the “Binding of Control serum LUMC to linear peptides” value came to 0.4 and the “Binding of Control serum LUMC to looped peptides” value worked out at 0.1. Further, in experiment [3], the “Rabbit serum linear peptides” value stood at 0.6 and the “Rabbit serum looped peptides” value was 0.0.
